ChEMBL document CHEMBL1201862, “PubChem BioAssay data set” (2004)
One block for each compound: values may come before it. Active and inactive are the calls of the source.

Key:
[1] = target: Muscarinic acetylcholine receptor M5 (Homo sapiens, UniProt P08912); assay: M5 muscarinic receptor antagonist potency, dose response, cell-based, CHO-K1 hM5, Fluo-4 calcium flux, ACh EC80 (AID 743110); type: functional
[2] = target: Muscarinic acetylcholine receptor M5 (Rattus norvegicus, UniProt P08911); assay: Discovery of Novel Antagonists of Muscarinic Receptor M5: Counterscreen against RAT M5.; type: functional
Sequence of Muscarinic acetylcholine receptor M5 (Rattus norvegicus, UniProt P08911) (P08911 whole entry): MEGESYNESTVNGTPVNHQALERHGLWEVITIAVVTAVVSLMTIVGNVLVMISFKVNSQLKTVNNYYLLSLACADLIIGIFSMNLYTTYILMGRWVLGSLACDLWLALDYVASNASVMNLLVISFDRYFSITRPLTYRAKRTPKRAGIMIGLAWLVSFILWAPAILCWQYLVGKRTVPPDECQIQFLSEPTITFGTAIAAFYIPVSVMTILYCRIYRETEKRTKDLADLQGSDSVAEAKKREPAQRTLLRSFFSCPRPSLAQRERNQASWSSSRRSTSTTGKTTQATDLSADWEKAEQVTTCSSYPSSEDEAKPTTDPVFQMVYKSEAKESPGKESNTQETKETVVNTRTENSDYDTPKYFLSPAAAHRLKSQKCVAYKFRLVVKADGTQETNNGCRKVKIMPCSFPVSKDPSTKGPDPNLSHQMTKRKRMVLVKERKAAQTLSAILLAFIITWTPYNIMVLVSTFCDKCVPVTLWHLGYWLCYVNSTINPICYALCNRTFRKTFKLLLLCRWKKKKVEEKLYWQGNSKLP

[3] = target: Transthyretin (Homo sapiens, UniProt P02766); assay: Luminescence-based cell-based high throughput dose response assay to identify activators of Transthyretin (TTR) transcription.; type: functional
[4] = cells; settings: HEK293
[5] = HEK293T cell cytotoxicity, dose response, cytotoxicity control, plate reader, dry powder, set 10 (AID 743315); type: functional, cell-based; settings: HEK293
[6] = A549 cell cytotoxicity, dose response, cytotoxicity control, plate reader, dry powder, set 6 (AID 743312); type: functional, cell-based
[7] = P. falciparum 3D7-ScDHODH growth inhibitors, dose response, SYBR Green, dry powder samples (AID 1159570); type: functional, cell-based;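 note: parasite growth measured after 72 hours of compound exposure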
[8] = P. falciparum Dd2 growth inhibitors, dose response, SYBR Green, cherry-picked samples (AID 1159567); type: functional, cell-based
[9] = Plasmodium falciparum Dd2 Sybr green parasite growth Measured in Cell-Based and Microorganism Combination System Using Plate Reader - 2153-01_Inhibitor_Dose_DryPowder_Activity_Set3.; type: functional
[10] = P. falciparum ATP4 D1247Y mutant growth inhibitors, dose response, NITD609-resistant line, SYBR Green, dry powder (AID 1159571); type: functional, cell-based;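 note: parasites synchronized at ring stage by sorbitol before testing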
[11] = P. falciparum Dd2 growth inhibitors, dose response, SYBR Green, dry powder samples (AID 1159566); type: functional, cell-based;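 note: potency for growth inhibition with lower SYBR green DNA signal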
[12] = inhibitors of Vif binding to APOBEC3G peptide, primary screen, biochemical, TR-FRET, GST-Vif 1-94, biotin-A3G peptide, dose response retest (AID 1117319); type: functional;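 note: TR-FRET signal of purified GST-Vif binding a biotinylated A3G peptide; inhibitors lower the FRET signal by blocking Vif and A3G binding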
[13] = target: Metabotropic glutamate receptor 7 (Homo sapiens, UniProt Q14831); assay: mGlu7 positive allosteric modulators, dose response, cell-based, calcium mobilization, Galpha15 (AID 743384); type: functional
Sequence of Metabotropic glutamate receptor 7 (Q14831 whole entry): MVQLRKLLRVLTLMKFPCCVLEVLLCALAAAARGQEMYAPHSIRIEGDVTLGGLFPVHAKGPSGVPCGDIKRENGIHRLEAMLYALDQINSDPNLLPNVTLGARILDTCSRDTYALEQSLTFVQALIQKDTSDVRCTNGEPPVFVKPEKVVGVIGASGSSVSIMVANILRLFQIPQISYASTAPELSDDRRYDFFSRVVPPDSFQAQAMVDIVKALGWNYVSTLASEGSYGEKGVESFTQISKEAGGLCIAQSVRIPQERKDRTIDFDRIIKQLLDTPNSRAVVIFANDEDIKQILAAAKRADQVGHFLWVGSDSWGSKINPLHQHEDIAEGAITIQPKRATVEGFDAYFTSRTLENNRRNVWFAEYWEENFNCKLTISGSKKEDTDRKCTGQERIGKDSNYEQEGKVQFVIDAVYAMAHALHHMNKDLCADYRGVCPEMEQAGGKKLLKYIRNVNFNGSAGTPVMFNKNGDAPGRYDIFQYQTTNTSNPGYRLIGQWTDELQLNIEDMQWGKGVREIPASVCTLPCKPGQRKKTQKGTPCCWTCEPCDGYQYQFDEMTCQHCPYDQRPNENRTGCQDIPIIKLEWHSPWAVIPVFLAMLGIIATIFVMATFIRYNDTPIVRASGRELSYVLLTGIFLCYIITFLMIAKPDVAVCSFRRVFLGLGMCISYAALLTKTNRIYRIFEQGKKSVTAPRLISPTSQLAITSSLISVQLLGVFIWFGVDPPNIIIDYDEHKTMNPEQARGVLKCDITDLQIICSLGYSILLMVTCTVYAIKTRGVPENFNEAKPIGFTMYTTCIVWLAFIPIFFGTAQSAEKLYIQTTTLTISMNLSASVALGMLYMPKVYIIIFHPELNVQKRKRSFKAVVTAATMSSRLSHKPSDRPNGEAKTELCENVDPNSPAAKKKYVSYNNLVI

[14] = target: E3 ubiquitin-protein ligase Mdm2 (Homo sapiens, UniProt Q00987); assay: enhancers of MDM2-luciferase reporter signal, concentration-effect titration, project on inhibitors of MDM2 ubiquitin ligase, cellular assay, luminescent readout, 384-well plate format (AID 1394); type: functional;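 note: MDM2 E3 inhibitors raise luminescence so EC50 is for signal enhancement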
Sequence of E3 ubiquitin-protein ligase Mdm2 (Q00987 whole entry): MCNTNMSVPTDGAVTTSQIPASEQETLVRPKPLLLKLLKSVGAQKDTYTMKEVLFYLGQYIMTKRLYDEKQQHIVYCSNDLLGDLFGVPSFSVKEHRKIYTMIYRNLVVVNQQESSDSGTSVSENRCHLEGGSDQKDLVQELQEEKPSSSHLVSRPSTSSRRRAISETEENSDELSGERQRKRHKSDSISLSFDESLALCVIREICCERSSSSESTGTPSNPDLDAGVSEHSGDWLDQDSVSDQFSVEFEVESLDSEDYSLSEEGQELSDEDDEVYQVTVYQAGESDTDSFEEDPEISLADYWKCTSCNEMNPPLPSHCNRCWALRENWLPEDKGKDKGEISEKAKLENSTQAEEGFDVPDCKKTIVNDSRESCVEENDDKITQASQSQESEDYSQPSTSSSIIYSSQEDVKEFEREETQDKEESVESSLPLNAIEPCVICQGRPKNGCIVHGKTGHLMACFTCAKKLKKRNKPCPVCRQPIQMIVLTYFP

[15] = cytotoxicity in OVCAR4 cells, dose response, cytotoxicity control for PAX8 inhibitor project, cell-based, plate reader, dry powder, SA11 (AID 743150); type: functional; settings: OVCAR-4
[16] = cytotoxicity in OV-90 ovarian cancer cells, dose response, PAX8 inhibitor project, cell-based, plate reader, dry powder, SA8 (AID 743149); type: functional
[17] = target: Paired box protein Pax-8 (Homo sapiens, UniProt Q06710); assay: inhibitors of PAX8-driven TPO luciferase reporter, dose response, RMG-I cells, cherry-pick (AID 687027); type: functional, cell-based;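 note: luciferase reporter driven by Pax8 target thyroperoxidase promoter measured by SteadyGlo luminescence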
Sequence of Paired box protein Pax-8 (Q06710 whole entry): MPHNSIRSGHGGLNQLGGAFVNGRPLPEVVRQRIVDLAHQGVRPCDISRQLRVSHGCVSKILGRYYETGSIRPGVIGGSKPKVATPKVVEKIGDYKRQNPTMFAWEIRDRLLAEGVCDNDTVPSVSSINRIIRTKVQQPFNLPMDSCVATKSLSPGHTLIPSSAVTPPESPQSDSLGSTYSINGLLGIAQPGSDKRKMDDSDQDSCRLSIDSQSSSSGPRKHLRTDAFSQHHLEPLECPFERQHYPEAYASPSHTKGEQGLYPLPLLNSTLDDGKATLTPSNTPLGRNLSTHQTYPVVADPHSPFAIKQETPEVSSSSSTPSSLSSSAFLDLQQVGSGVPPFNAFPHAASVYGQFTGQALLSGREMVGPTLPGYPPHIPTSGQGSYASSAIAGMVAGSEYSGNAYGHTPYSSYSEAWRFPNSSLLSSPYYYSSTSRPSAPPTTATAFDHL

[18] = A2780 ovarian cancer cell cytotoxicity, dose response, cytotoxicity control, plate reader, dry powder samples (AID 743046); type: functional, cell-based
[19] = NIH:OVCAR-3 ovarian cancer cell cytotoxicity, dose response, PAX8 inhibitor project, plate reader, dry powder samples (AID 743044); type: functional, cell-based
[20] = cytotoxicity dependent on PAX8, dose response, cell-based, plate reader, dry powder (AID 743049); type: functional
[21] = PAX5 activity inhibitors, dose response, selectivity assay for PAX8 inhibitor project, cell-based, plate reader, dry powder samples (AID 743047); type: functional;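 note: HEK293 cells carrying a Pax5 driven CD19 promoter luciferase reporter; potency of inhibitors that lower reporter luminescence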
[22] = cytotoxicity in OVCAR8 ovarian cancer cells, dose response, PAX8 project, cell-based, plate reader, dry powder samples (AID 743197); type: functional; settings: OVCAR-8
[23] = cytotoxicity in COV362 ovarian cancer cells, dose response, cytotoxicity control for PAX8 inhibitor project, cell-based, plate reader, dry powder, SA12 (AID 743144); type: functional
[24] = IGROV1 ovarian cancer cell cytotoxicity, dose response, PAX8 inhibitor project, plate reader, dry powder samples (AID 743043); type: functional, cell-based; settings: IGROV-1
[25] = IOSE-T80 ovarian epithelial cell cytotoxicity, dose response, cytotoxicity control for PAX8 inhibitor project, plate reader, dry powder samples (AID 743045); type: functional, cell-based
[26] = cytotoxicity in COV434 cells, dose response, cytotoxicity control for PAX8 inhibitor project, cell-based, plate reader, dry powder, SA7 (AID 743145); type: functional
[27] = PAX2 cell-based inhibition, dose response, selectivity assay for PAX8 inhibitor project, plate reader, dry powder samples (AID 743048); type: functional;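 note: HEK293 cells carrying a WT1 promoter luciferase reporter driven by expressed Pax2; potency is for inhibition of Pax2 driven reporter signal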
[28] = antifungal activity, alamar blue, dry powder, counter-screen for C. neoformans cell wall antifungals, dose response (AID 743128); type: functional, organism-based

Sequence of Muscarinic acetylcholine receptor M5 (Homo sapiens, UniProt P08912) (P08912 whole entry): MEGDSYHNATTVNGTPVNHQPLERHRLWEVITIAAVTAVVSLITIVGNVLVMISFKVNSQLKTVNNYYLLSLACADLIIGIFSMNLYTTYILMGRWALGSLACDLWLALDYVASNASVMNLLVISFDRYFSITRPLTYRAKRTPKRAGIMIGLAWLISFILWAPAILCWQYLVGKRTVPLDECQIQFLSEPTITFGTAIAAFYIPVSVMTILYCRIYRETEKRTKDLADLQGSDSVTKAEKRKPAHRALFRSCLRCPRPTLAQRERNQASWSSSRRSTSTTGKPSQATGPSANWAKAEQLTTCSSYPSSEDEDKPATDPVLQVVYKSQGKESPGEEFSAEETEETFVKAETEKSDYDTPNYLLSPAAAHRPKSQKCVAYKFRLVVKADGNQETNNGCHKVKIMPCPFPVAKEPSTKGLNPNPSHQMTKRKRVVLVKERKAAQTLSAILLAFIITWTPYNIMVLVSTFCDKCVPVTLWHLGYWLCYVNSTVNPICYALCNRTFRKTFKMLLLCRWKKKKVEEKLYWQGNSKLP

Compound: CC(C)(C)c1ccc(OCCn2cnc3ccccc32)cc1
AC50 [4]: 20.9 µM (active)
AC50 [5]: 15.9 µM (active)
AC50 [6]: 23.9 µM (active)

Compound: CO[C@@H]1CN(C)C(=O)c2ccc(NC(=O)Nc3ccccc3F)cc2OC[C@@H](C)N(CCC(F)(F)F)C[C@H]1C
AC50 [7]: 6.04 µM (active)
AC50 [8]: 1.57 µM (active)
AC50 [9]: 0.567 µM (active)
AC50 [10]: 1.92 µM (active)
AC50 [11]: 0.51 µM (active)

Compound: CN(C[C@H]1N[C@@H](CO)[C@@H]1c1ccc(-c2cccnc2)cc1)C(=O)c1ccccc1
AC50 [15]: 5.14 µM (active)
AC50 [16]: 14.5 µM (active)
AC50 [17]: 2.89 µM (active)
AC50 [18]: 13.8 µM (active)
AC50 [19]: 7.22 µM (active)
AC50 [20]: 9.82 µM (active)
AC50 [21]: 15.8 µM (active)
AC50 [22]: 8.64 µM (active)
AC50 [23]: 7.42 µM (active)
AC50 [24]: 5.83 µM (active)
AC50 [25]: 23.4 µM (active)
AC50 [26]: 11.3 µM (active)
AC50 [27]: > 32 µM (inactive)

Compound: Cc1ccc(OCCn2cnc3ccccc32)cc1
AC50 [28]: 38.9 µM (active)

Continued, values first:

IC50 [1]: 6.77 µM (active)
IC50 [2]: 7.11 µM (active)
Compound: CC(=O)c1cccc(NCc2cc(C(=O)N(C)C(C)c3ccccn3)no2)c1 (stereo not drawn)

EC50 [3]: > 167 µM (inactive)
Compound: O=C(/C(=C(\[S-])Nc1ccc(SC(F)F)cc1)[n+]1ccccc1)c1cc(Cl)ccc1Cl

IC50 [12]: > 100 µM (active)
Compound: Cc1cc(NC(=O)Cn2cnc3c(nnn3-c3cccc(F)c3)c2=O)no1

EC50 [13]: 10 µM (active)
Compound: COc1ccc(CSCC(=O)c2cc(C)n(-c3ccc(OC(F)F)cc3)c2C)cc1

EC50 [14]: 20.4 µM (not active)
Compound: Cc1cc(C(=O)CSc2nnc(Nc3ccccc3)s2)c(C)n1CC1CCCO1 (stereo not drawn)
